Tests used:
[1] = biological target: T1, UGT1A3 (Homo sapiens, UniProt P35503); assay: Inhibition of 4-MU glucuronidation by recombinant UGT1A3; conditions: recombinant UGT1A3, pH 7.4, probe 4-MU
T1 sequence (P35503 29-534): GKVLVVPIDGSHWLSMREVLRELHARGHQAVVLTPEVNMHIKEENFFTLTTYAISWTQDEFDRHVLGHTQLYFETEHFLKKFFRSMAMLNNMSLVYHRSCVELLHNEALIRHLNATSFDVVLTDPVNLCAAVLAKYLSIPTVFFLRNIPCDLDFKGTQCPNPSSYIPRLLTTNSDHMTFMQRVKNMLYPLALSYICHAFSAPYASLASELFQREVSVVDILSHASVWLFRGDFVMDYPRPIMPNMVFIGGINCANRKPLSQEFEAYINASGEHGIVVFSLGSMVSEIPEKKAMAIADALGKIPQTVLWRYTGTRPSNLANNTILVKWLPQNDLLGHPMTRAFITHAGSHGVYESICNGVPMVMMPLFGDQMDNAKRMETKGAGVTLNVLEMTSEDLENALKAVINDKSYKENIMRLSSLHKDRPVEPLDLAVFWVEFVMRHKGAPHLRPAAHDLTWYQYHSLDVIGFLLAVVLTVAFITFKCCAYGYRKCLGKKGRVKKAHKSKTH

[2] = ref [17][40][45] axitinib, [38][39][46] imatinib, [41][42] lapatinib, [43][44] vandetanib, cited from earlier work; for Cmax: clinical oral dose: axitinib 5 mg/12 h, imatinib 400 mg/24 h, lapatinib 1250 mg/24 h, vandetanib 300 mg/24 h; for Absorption Rate Constant (ka) / Fraction absorbed (Fa) / Oral CL / t1/2: clinical
[3] = biological target: T2, UGT1A8 (Homo sapiens, UniProt Q9HAW9); assay: Inhibition of 4-MU glucuronidation by recombinant UGT1A8; conditions: recombinant UGT1A8, pH 7.4, probe 4-MU
T2 sequence (Q9HAW9 26-530): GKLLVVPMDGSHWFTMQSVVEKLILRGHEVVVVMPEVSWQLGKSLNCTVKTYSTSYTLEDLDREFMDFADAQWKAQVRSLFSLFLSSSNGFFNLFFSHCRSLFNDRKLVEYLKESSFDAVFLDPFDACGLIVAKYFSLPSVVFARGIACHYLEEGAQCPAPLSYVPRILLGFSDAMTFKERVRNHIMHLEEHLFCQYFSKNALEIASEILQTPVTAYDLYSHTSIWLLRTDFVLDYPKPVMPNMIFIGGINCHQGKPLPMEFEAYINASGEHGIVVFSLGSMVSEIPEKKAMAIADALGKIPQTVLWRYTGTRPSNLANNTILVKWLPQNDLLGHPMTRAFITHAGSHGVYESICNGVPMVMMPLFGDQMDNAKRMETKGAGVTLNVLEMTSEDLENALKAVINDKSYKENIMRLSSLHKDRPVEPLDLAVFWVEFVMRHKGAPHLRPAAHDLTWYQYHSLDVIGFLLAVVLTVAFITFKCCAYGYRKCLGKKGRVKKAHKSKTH

[4] = biological target: T3, UGT1A4 (Homo sapiens, UniProt P22310); assay: Inhibition of TFP glucuronidation by recombinant UGT1A4; conditions: for activity at 30 min, 100 µM: human
T3 sequence (P22310 29-534): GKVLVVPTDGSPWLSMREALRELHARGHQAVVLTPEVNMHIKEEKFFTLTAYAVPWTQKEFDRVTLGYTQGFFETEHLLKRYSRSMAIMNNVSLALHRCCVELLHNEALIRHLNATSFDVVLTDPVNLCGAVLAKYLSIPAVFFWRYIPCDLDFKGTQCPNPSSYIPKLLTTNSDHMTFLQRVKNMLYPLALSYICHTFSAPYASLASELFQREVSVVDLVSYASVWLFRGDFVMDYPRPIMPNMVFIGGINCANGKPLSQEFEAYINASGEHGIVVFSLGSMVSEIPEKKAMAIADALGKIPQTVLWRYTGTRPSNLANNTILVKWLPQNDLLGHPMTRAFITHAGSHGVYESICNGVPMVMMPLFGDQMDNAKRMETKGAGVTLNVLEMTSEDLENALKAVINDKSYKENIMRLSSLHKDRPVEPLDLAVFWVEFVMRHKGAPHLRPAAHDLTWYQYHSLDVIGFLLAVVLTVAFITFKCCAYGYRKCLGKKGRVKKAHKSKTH

[5] = biological target: T4, UGT2B17 (Homo sapiens, UniProt O75795); assay: Inhibition of 4-MU glucuronidation by recombinant UGT2B17; conditions: recombinant UGT2B17, pH 7.4, probe 4-MU
T4 sequence (O75795 24-530): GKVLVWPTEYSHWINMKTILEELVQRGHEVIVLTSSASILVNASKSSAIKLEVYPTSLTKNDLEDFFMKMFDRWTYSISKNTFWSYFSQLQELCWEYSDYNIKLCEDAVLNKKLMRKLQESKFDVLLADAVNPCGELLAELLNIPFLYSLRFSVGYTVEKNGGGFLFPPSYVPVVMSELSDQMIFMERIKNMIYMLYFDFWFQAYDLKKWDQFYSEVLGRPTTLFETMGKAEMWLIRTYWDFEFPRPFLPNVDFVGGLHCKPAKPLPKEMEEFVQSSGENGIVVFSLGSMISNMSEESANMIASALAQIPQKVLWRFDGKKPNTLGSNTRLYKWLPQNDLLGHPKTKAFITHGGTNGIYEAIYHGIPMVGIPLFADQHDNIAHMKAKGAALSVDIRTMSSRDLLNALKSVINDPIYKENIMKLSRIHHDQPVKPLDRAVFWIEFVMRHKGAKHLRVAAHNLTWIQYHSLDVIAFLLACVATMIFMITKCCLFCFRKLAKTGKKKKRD

[6] = recombinant UGT1A4, pH 7.4, probe TFP (trifluoperazine)

Compound | activity at 75 min, 100 µM [1] | Cmax [2] | Absorption Rate Constant (ka) [2] | Fraction absorbed (Fa) [2] | Oral CL [2] | t1/2 [2] | activity at 30 min, 100 µM [3] | IC50 [4] | Ki [4] | inhibition type, UGT1A4 ([4]; TFP substrate) | activity at 30 min, 100 µM [4, 6] | activity at 120 min, 100 µM [5] | activity at 30 min, 100 µM ([4]; pH 7.4)
CS(=O)(=O)CCNCc1ccc(-c2ccc3ncnc(Nc4ccc(OCc5cccc(F)c5)c(Cl)c4)c3c2)o1 [Lapatinib, lapatinib] | 96.5 ± 7.5% | 4.2 µM | 0.7 h⁻¹ | 0.73 | 114 L/h | 24 h | 73.5 ± 10.6% | 3.8 ± 0.7 µM | 36.4 ± 5 µM | mixed | 40.7 ± 1.9% | 94.8 ± 5.7% | 
COc1cc2c(Nc3ccc(Br)cc3F)ncnc2cc1OCC1CCN(C)CC1 [Vandetanib, vandetanib] | 104 ± 2.1% | 3.32 µM | 0.3 h⁻¹ | 0.935 | 13.2 L/h | 456 h | 56 ± 6.3% |  |  |  | 62.8% | 69.7 ± 3.1% | 
CNC(=O)c1ccccc1Sc1ccc2c(/C=C/c3ccccn3)n[nH]c2c1 [Axitinib, axitinib] | 47.8 ± 12.8% | 0.16 µM | 0.523 h⁻¹ | 0.88 | 45 L/h | 3.2 h | 54.6 ± 2.4% | 14.2 ± 3.2 µM |  |  |  | 55.9 ± 0.3% | 14.9 ± 1.8%

Reference: publication PMC4672351, “Drug-Drug Interaction Potentials of Tyrosine Kinase Inhibitors via Inhibition of UDP-Glucuronosyltransferases” (Scientific Reports, 2015)
